The target in one test is PDE10 (Rattus norvegicus (Rat), UniProt Q9QYJ6). Briefly: PDE10 ex vivo receptor occupancy (RO) screening in rat striatum. The following applies: oral, 10 mpk, 1 h (footnote A). As for the experimental part: The ex vivo screening protocol was approved by Amgen's Institutional Animal Care and Use Committee (IACUC) and in accordance with the National Institutes of Health Guide for Care and Use of Laboratory Animals in facilities accredited by the Association for the Assessment and Accreditation of Laboratory Animal Care (AALAC).
PDE10 inhibitors were dissolved in 2% Hydroxypropylmethylcellulose (HPMC), 1% Tween-80, pH 2.2 with methanesulfonic acid. Male Sprague Dawley® rats weighing 180-225 g (4 per group) were dosed orally with either vehicle or PDE10 inhibitors (3 mg/kg or 10 mg/kg) and then returned to their home cage to allow for absorption of the compounds. After one hour (with 10 mg/kg PDE10 inhibitor) or four hours (with 3 mg/kg or 10 mg/kg PDE10 inhibitor) rats were sacrificed by CO2 inhalation. Blood was obtained by heart puncture and plasma was frozen and stored at −80° C. for exposure analysis. Brains were removed and immediately frozen in chilled methylbutane, and stored at −80° C. until cutting. Three coronal brain slices per brain containing the striatum were cut at […] using a cryostat and placed onto microscope slides, air-dried and stored at −20° C. For radioligand binding experiments, slides were thawed at room temperature and then incubated with 1 nM a tritium labeled tracer compound (insert citation) in binding buffer (150 mM Phosphate-buffered saline containing 2 mM MgCl2 and 100 mM DTT, pH 7.4) for 1 minute at 4° C. To assess non-specific binding, slides containing adjacent brain sections were incubated in the same solution with addition of […] of an unlabelled, structurally unrelated PDE10 antagonist. Afterwards slides were washed 3 times in ice-cold binding buffer, dipped into distilled water to remove buffer salts, and dried under a stream of cold air. Emission of beta particles from the sections was counted for 8 hours in a Beta Imager 2000 (Biospace, Paris, France) and digitized and analyzed using M3 Vision software (Biospace, Paris, France). Total binding radioactivity in the striatum was measured as cpm/mm^2 in hand-drawn regions of interest and averaged across the three sections per brain. Non-specific binding was subtracted to obtain specific binding values and percent occupancy was calculated by setting vehicle specific binding as 0% occupancy.

The target of another test is human PDE2A1 (Homo sapiens (Human), UniProt O00408). Briefly: PDE2A inhibition, PDE IMAP TR-FRET assay. The test is classed as biochemical. To be noted: FAM-cAMP substrate. As to the method: Purified human PDE2A1 and PDE10A2 enzymes were obtained from BPS Bioscience (San Diego, Calif.). IMAP™ TR-FRET progressive binding system, FAM-cAMP substrate were from Molecular Devices (Sunnyvale, Calif.).
The PDE IMAP assay was conducted in a 384-well black Greiner polypropylene plate (Sigma, St. Louis, Mo.). PDE inhibitors were serial diluted in 100% DMSO and dispensed into assay plate at […] per well using Echo® Liquid Handling System from LABCYTE. Ten μL of PDE enzyme in IMAP reaction buffer (10 mM Tris-HCl, pH 7.2, 10 mM MgCl2, 0.05% NaN3, and 0.01% Tween-20) was added into the assay wells. The PDE enzyme concentration used was based on each lot of enzyme activity, to ensure enzyme reaction falls in a linear range under assay condition. 1.4 nM of PDE2 or […] PDE10 were used in the assay system. Enzyme was pre-incubated with inhibitors for 60 minutes at room temperature before addition of 10 uL of substrate addition, which results in 100 nM of FAM-cAMP in the reaction. Enzyme reaction was allowed to proceed at room temperature for 90 min, and the reaction is stopped by 55 μl addition of binding reagent according to manufacturer's recommendation. The mixture is further incubated at room temperature for additional 4 hours, and signal was read on an Envision multimode reader (PerkinElmer). Fluorescence signals were measured at 520 nm and 485 nm. The signal ratio at 520/485 nm corresponded to the generation of reaction product of AMP, and it was used in all data analysis. Values from DMSO-treated wells were normalized to POC=100, and no-enzyme wells were normalized to POC=0. IC50 values were determined by using the Genedata Screener V9.0.1. The curve fitting algorithm used for dose response data analysis in Genedata Screener is a custom implementation of a robust curve-fitting algorithm called ROUT (Robust regression with outlier detection) and uses a four-parameter logistical (4 PL) Hill model.

Each structure is given as a SMILES string.

Chain of human PDE2A1 (O00408 other isoform, or with tags, fused parts or gaps): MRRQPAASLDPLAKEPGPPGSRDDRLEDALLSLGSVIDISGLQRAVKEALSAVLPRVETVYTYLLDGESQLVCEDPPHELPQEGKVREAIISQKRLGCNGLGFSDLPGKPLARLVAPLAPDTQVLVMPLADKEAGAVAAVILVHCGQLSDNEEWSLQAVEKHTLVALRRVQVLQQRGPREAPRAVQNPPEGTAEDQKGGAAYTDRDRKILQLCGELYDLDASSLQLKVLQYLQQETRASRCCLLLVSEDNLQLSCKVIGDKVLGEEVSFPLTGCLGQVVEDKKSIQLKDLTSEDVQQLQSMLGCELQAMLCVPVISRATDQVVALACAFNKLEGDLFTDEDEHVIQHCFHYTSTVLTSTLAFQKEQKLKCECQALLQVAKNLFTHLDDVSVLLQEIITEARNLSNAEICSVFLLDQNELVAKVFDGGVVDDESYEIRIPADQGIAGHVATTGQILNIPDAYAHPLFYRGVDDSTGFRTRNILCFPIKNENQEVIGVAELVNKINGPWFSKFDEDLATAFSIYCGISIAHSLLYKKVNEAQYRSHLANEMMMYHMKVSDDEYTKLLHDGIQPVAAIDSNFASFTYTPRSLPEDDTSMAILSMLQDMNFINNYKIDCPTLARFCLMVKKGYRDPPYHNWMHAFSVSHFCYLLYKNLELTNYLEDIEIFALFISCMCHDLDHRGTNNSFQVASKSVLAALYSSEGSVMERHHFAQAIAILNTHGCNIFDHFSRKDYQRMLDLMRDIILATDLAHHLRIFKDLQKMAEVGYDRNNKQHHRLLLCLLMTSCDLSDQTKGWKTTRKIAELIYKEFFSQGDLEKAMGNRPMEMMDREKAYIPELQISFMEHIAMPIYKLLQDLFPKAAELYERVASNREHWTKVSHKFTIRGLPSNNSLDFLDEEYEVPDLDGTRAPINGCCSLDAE
Chain of PDE10 (Q9QYJ6 whole entry): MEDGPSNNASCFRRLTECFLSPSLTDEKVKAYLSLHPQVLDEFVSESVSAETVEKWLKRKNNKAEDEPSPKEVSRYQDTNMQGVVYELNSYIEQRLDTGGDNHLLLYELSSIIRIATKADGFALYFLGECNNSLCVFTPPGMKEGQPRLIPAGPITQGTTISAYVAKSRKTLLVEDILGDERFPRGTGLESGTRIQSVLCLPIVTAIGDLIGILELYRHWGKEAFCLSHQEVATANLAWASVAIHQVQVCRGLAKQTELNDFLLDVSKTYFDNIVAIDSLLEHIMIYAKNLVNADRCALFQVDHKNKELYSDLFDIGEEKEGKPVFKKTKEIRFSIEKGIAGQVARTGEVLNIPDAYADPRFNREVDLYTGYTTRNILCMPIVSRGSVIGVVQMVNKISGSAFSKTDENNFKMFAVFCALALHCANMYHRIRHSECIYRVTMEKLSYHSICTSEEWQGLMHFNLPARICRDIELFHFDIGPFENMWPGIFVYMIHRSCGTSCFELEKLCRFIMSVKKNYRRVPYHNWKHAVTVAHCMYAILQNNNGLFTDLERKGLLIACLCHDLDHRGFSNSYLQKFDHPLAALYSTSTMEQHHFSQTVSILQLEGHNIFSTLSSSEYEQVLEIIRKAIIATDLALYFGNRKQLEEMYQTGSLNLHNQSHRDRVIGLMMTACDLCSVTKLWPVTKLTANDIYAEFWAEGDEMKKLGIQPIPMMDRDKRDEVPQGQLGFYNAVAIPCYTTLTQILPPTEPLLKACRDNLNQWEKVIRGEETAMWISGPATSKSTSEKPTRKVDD

As to `NC(=O)c1ccc(-c2nccnc2C2CN(c3ccc4ccccc4n3)C2)cc1` [Compound 15, 4-(3-(1-(2-quinolinyl)-3-azetidinyl)-2-pyrazinyl)benzamide, reference compound], the receptor occupancy at 10 mg/kg on PDE10 turned out to be 47.7%. At human PDE2A1, this compound had an IC50 of 10 µM.

`NC(=O)c1ccc(-c2nccnc2C2CN(c3ccc4ccccc4n3)C2)cc1F` [Compound 16, 2-fluoro-4-(3-(1-(quinolin-2-yl)azetidin-3-yl)pyrazin-2-yl)benzamide, reference compound] showed a receptor occupancy at 10 mg/kg at PDE10 of 52.3%. In addition, the IC50 against human PDE2A1 was 3.3 µM.

At PDE10, `CNC(=O)c1cccc(-c2nccnc2C2CN(c3ccc4ccccc4n3)C2)c1` [Compound 17, N-methyl-3-(3-(1-(quinolin-2-yl)azetidin-3-yl)pyrazin-2-yl)benzamide, reference compound] displayed a receptor occupancy at 10 mg/kg of 72%. For the same compound, inhibition on human PDE2A1 was half-maximal at 2.16 µM (IC50).

The values above are taken from US8691986B2, “Azetidine and piperidine compounds useful as PDE10 inhibitors” (Amgen Inc., priority 2012, dated 2014).
